{
  "source": "patent US8114895B2",
  "about": "“Use of bipyridine compound ‘Caerulomycin A’ derivatives and analogs thereof as immunosuppressive agents” (Council of Science and Industrial Research, priority 2005, dated 2012)",
  "key": {"[1]": {"tested_on": "Splenocytes of BALB/c mice", "assay": "Proliferation of splenocytes stimulated with T cell and B cell mitogens (ConA, LPS)", "assay_type": "cell-based", "method": "Splenocytes of BALB/c mice were cultured (5×10^4 cells/well) in 200 μl RPMI/FCS-10% medium and stimulated with different concentrations of either ConA (1 μg/ml and 2 μg/ml) or LPS (5 μg/ml and 10 μg/ml) and Caerulomycin A (0.0003-0.1 μg/ml). The control cultures consisting of splenocytes incubated with medium alone, ConA and DMSO. After 48 h, the cultures were pulsed with 0.5 μCi of [^3H]-thymidine and harvested 14 h later by automatic cell harvester (Skatron, Tranby, Norway). Radioactivity incorporated was measured by liquid scintillation counting and data are expressed as mean counts per minute (cpm).\nExamples establishing the role of Caerulomycin A [isolated from a novel species of Actinoalloteichus] in inducing immunosuppression based on the following: • Splenocytes of BALB/c mice were stimulated with either ConA (1 μg/ml and 2 μg/ml) or LPS (5 μg/ml and 10 μg/ml) and were cultured with different concentrations of Caerulomycin A (0.0003-0.1 μg/ml). After 48 h, the cultures were pulsed with 0.5 μCi of [^3H]-thymidine and harvested 14 h later by automatic cell harvester. Radioactivity incorporated was measured by liquid scintillation counting. • Antigen ovalbumin (100 μg/ml) emulsified in Freund's complete adjuvant was injected in a group consisting of 5 BALB/c mice. […] Radioactivity incorporated was measured by liquid scintillation. The culture supernatants were collected after 48 h and cytokines were measured by ELISA. • Immunosuppressive effect of different doses of Caerulomycin A was monitored on naïve CD4^+ T cells, antigen reactive CD4^+ T cells, Th2 clone and Th1 hybridoma. […] Radioactivity incorporated was measured by liquid scintillation. • Immunosuppressive effect of Caerulomycin A on MLR reaction. […] After 4 days, the cultures were pulsed with 1 μCi of [^3H]-thymidine and harvested 16 h later and radioactivity incorporated was measured by liquid scintillation counting. • In vivo immunosuppressive effect of Caerulomycin A on the proliferation of T cells. […] CD28 and CTLA-4 expression was detected by flowcytometry on the surface of resting and ConA activated CD4^+ T cells. […]"}, "Th1 cells (3DO.54.8)": {"tested_on": "Th1 cells (3DO.54.8)", "assay": "Proliferation of Th1 cells", "assay_type": "cell-based", "details": "anti-CD3 Ab 10 μg/ml; 24 h", "method": "Th1 cells (1×10^4 cells/well) were stimulated with anti-CD3 Ab (10 μg/ml) and different doses Caerulomycin A. After 24 h, [^3H]-thymidine was added, and its incorporation was measured 8 h later."}, "D10G4.1 Th2 clones": {"tested_on": "D10G4.1 Th2 clones", "assay": "IL-4 release by Th2 clones", "assay_type": "cell-based", "details": "stimulated with anti-CD3 Ab (0.1 and 0.5 μg/ml) or conalbumin pulsed APC"}, "J774": {"tested_on": "J774", "assay": "Expression of B7-1 and B7-2 on J774", "assay_type": "cell-based"}, "[2]": {"tested_on": "BALB/c splenocytes (responder cells) and γ-irradiated C57BL/6J splenocytes (stimulator cells)", "assay": "Mixed lymphocyte reaction (MLR), [3H]-thymidine incorporation", "assay_type": "cell-based, mice", "method": "The MLR was performed in 96-well tissue culture plates, with each well containing 4×10^5 BALB/c splenocytes (responder cells) and 4×10^5 γ-irradiated (3000R) C57BL/6J splenocytes (stimulator cells) in 200 μl RPMI/FCS-10% medium and with various concentrations of Caerulomycin A (1-0.0125 μg/ml) and Cyclosporin A (0.0125-10 μg/ml). The control cultures consisting of BALB/c splenocytes in medium alone, γ-irradiated C57BL/6J splenocytes and BALB/c splenocytes+γ-irradiated C57BL/6J splenocytes were also kept. After 4 days, the cultures were pulsed with 1 μCi of [^3H]-thymidine and harvested 16 h later by a Skatron cell harvester. Radioactivity incorporated was measured by liquid scintillation counting and data expressed as mean counts per minute (cpm).\nExamples establishing the role of Caerulomycin A [isolated from a novel species of Actinoalloteichus] in inducing immunosuppression based on the following: • Splenocytes of BALB/c mice were stimulated with either ConA (1 μg/ml and 2 μg/ml) or LPS (5 μg/ml and 10 μg/ml) and were cultured with different concentrations of Caerulomycin A (0.0003-0.1 μg/ml). […] Radioactivity incorporated was measured by liquid scintillation counting. • Antigen ovalbumin (100 μg/ml) emulsified in Freund's complete adjuvant was injected in a group consisting of 5 BALB/c mice. […] Radioactivity incorporated was measured by liquid scintillation. […]"}},
  "note": "Entries after “also recorded” stand apart in the source; their conditions may differ.",
  "data": [
    {"smiles": "COc1cc(/C=N/O)nc(-c2ccccn2)c1", "note": "[Caerulomycin A, (E)-4-methoxy-2,2′-bipyridine-6-carbaldehyde oxime]", "values": [
      {"measurement": "proliferation of mitogen stimulated cells at the effective doses", "setting": "[1]; Caerulomycin A 0.05 and 0.1 μg/ml", "result": "potent inhibition"},
      {"measurement": "proliferation of ConA stimulated cells", "setting": "[1]; ConA 1.0 and 2.0 μg/ml, Caerulomycin A 0.0003-0.1 μg/ml, 48 h", "result": "significant decrease"},
      {"measurement": "proliferation of cells stimulated with LPS", "setting": "[1]; LPS 5 and 10 μg/ml, Caerulomycin A 0.0003-0.1 μg/ml, 48 h", "result": "suppress the proliferation"},
      {"measurement": "proliferation of Th1 cells", "setting": "Th1 cells (3DO.54.8)", "result": "inhibited the proliferation"},
      {"measurement": "release of IL-4", "setting": "D10G4.1 Th2 clones", "result": "suppressed the release"},
      {"measurement": "expression of B7-1", "setting": "J774", "result": "no major change"},
      {"measurement": "expression of B7-2", "setting": "J774", "result": "increased the expression"},
      {"measurement": "MLR reaction (proliferation)", "setting": "[2]; Caerulomycin A 1-0.0125 μg/ml, Cyclosporin A 0.0125-10 μg/ml, 4 days", "result": "dose dependent inhibition; also recorded: substantially reduced the MLR reaction"},
      {"measurement": "potency in inhibiting MLR relative to Cyclosporin A (CsA)", "setting": "[2]; similar amount of inhibition of proliferation at a lesser dose than CsA", "result": 10, "unit": "fold"}
    ]}
  ]
}
